Columns and labels:
CCR3 = CCR3 (Homo sapiens, UniProt P51677); test: Inhibition of ligand binding to CCR3
[1] = tested on: RANTES-induced Ca2+ mobilization; test: RANTES-induced Ca2+ mobilization; type: cell-based
MCP-1 = test: Study 201: MCP-1, hs-CRP and IL-6 levels; type: in vivo, human
Experimental: Participants were required to be antiretroviral treatment-experienced, CCR5 antagonist-naive, with HIV-1 RNA levels of at least 5000 copies/mL and CD4+ cell counts of at least 250 cells/mm^3 was performed.
Exploratory assessment of changes in MCP-1 (a ligand of CCR2, which is a chemokine co-receptor expressed on pro-inflammatory monocytes, also known as CCL2), hs-CRP, and IL-6 were performed and significant dose-dependent increases in MCP-1 were observed (Table 23).

[2] = tested on: CC14-induced acute liver injury; test: CC14-induced acute liver injury in mice; type: in vivo, C57BL/6J mice; conditions: CVC 100 mg/kg oral, 36h after CC14; vehicle 5.49%±0.49
Experimental: Liver injury and immune cell phenotypes were analyzed. For mechanistic studies, monocyte-derived macrophage subsets and resident macrophages (Kupffer cells) were sorted by FACS from injured livers and subjected to array-based Nanostring gene expression analysis.

[3] = Phase 1 studies in healthy volunteer subjects; type: in vivo, human; conditions: single doses up to 800 mg, multiple daily doses up to 200 mg for 10 days
Source text: The frequency and magnitude of transaminase elevations observed across these studies was consistent with the pattern described for Phase 1 studies in scientific literature. […] In both studies and at all doses CVC presented a favorable adverse event profile. […] No clinically relevant changes in ECG parameters or changes for any vital sign parameters were observed during the 48-week treatment period. No apparent dose or exposure relationship for adverse events, laboratory abnormalities (including CPK, ALT, AST and bilirubin elevations) or dose-limiting toxicities were observed.

[4] = Study 202: ECG abnormalities and vital signs; type: in vivo, human; conditions: for HR Abnormally high, n subjects / HR Abnormally low, n subjects / PR Abnormally high, n subjects / QRS Abnormally high, n subjects / QRS Abnormally low, n subjects / QTcB interval Borderline (450-480 ms), n subjects / QTcB interval Increase by >30-60 ms, n subjects / QTcB interval Increase by >60 ms, n subjects / QTcB interval Pathologically prolonged, n subjects / QTcB interval Prolonged, n subjects / QTcF interval Borderline (450-480 ms), n subjects / QTcF interval Increase by >30-60 ms, n subjects / QTcF interval Increase by >60 ms, n subjects / QTcF interval Pathologically prolonged, n subjects / QTcF interval Prolonged, n subjects: through Week 48
CCR1 = CCR1 (Homo sapiens, UniProt P32246); test: Inhibition of ligand binding to CCR1
CCR1, sequence (P32246 whole entry): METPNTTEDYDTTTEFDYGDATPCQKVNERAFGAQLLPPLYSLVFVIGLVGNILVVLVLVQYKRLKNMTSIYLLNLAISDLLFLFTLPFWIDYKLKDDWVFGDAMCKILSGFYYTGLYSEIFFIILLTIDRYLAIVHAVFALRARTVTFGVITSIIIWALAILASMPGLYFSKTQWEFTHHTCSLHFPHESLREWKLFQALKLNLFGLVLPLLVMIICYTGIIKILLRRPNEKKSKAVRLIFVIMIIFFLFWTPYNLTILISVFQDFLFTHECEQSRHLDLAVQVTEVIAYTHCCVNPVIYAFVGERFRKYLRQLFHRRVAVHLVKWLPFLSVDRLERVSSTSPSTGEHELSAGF

[5] = tested on: unilateral ureter occlusion (UUO) renal fibrosis; test: Mouse UUO model of renal fibrosis; type: in vivo, CD-1 mice
Experimental: Test animals were allocated to weight-matched treatment groups on the day prior to the surgical procedure (Day-1). Male CD-1 mice (N=51; age, 7-8 weeks) underwent either sham surgery or total ligation of the right ureter, i.e. UUO, via aseptic laparotomy (FIG. 12). […] Another group received the anti-transforming growth factor TGF-β1 antibody, compound 1D11 (positive control) at 3 mg/kg/day from Days-1 to 4, injected intraperitoneally once daily, and vehicle control from Days 0 to 5. […] On Day 5, animals were anaesthetized, blood and tissues were collected prior to sacrifice.
Study endpoints included: a) body and kidney weights; b) fibrosis in obstructed kidney evaluated via histological quantitative image analysis of picrosirius red staining (ten images/depth/kidney obtained and assessed in a blinded fashion using light microscopy [at 200×] to enable sampling of 60-70% of the renal cortical area) and quantified by a composite Collagen Volume Fraction (CVF [% total area imaged]) score expressed as the average positive stain across three anatomically distinct ([…] apart) tissue sections, or depths, from the obstructed kidney; c) hydroxyproline content of frozen renal cortical tissue biopsies as assessed by biochemical analyses; d) mRNA expression of profibrotic and inflammatory biomarkers (including MCP-1, Collagen 1a1, Collagen 3a1, TGF-β1, Fibronectin-1, α-smooth muscle actin (α-SMA) and connective tissue growth factor-1 (CTGF-1); assessed via Luminex® (Life Technologies™, Carlsbad, Calif., USA) assay with relative expression normalised to HPRT (hypoxanthine phosphoribosyltransferase).
Data are expressed as mean±standard error of mean (SEM). Statistical analyses were performed using GraphPad Prism® (GraphPad Software, Inc., San Diego, Calif., USA). Treatment differences between sham-surgery+vehiclecontrol and UUO+vehicle-control groups, and between UUO+vehicle-control and UUO+compound-1D11 (positive control) groups, were analysed by unpaired t-Test. Treatment differences between UUO+vehicle-control and CVC-dose groups were analysed by one-way ANOVA (analysis of variance) with Dunnett's test (post-hoc).

[6] = Tissue distribution in rodents; type: in vivo
[7] = Chronic (3- and 9-month) monkey toxicity studies; type: in vivo; conditions: 1000 mg/kg/day
[8] = All CVC (N = 115), EFV (N = 28)

CCR3, sequence (P51677 whole entry): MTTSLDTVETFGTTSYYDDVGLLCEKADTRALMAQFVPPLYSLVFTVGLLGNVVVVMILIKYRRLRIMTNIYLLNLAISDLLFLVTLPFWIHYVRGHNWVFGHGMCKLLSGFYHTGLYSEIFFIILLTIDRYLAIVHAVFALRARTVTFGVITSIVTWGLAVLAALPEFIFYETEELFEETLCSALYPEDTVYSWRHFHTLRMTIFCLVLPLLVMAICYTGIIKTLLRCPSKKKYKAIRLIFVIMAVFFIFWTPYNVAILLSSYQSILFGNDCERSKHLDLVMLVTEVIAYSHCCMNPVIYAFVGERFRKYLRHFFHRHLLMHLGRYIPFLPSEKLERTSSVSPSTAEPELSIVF

CCCCOCCOc1ccc(-c2ccc3c(c2)/C=C(/C(=O)Nc2ccc([S@@+]([O-])Cc4cncn4CCC)cc2)CCCN3CC(C)C)cc1 [CVC, (S)-8-[4-(2-Butoxyethoxy)phenyl]-1-isobutyl-N-(4-{[(1-propyl-1H-imidazol-5-yl)methyl]sulfinyl}phenyl)-1,2,3,4-tetrahydro-1-benzazocine-5-carboxamide]
Inhibition of ligand binding to CCR3 (CCR3): only weakly inhibited | Effect on RANTES-induced Ca2+ mobilization [1]: blocked | Effect on hs-CRP or IL-6 levels (MCP-1; 10-day study, overall): no effect | MCP-1 Baseline, Mean (MCP-1; CVC 25 mg): 20.0 pg/mL | MCP-1 Baseline, Median (MCP-1; CVC 25 mg): 16.0 pg/mL | MCP-1 Baseline, Range (MCP-1; CVC 25 mg): 7 to 44 pg/mL | MCP-1 Change from Baseline to Day 10, Median (MCP-1; CVC 25 mg): +25.0 pg/mL | MCP-1 Day 10, Mean (MCP-1; CVC 25 mg): 75.3 pg/mL | MCP-1 Day 10, Median (MCP-1; CVC 25 mg): 39.0 pg/mL | MCP-1 Day 10, Range (MCP-1; CVC 25 mg): 10 to 287 pg/mL | MCP-1 Baseline, Mean (MCP-1; CVC 50 mg): 12.6 pg/mL | MCP-1 Baseline, Median (MCP-1; CVC 50 mg): 6.0 pg/mL | MCP-1 Baseline, Range (MCP-1; CVC 50 mg): 5 to 37 pg/mL | MCP-1 Change from Baseline to Day 10, Median (MCP-1; CVC 50 mg): +56.0 pg/mL | MCP-1 Day 10, Mean (MCP-1; CVC 50 mg): 101.3 pg/mL | MCP-1 Day 10, Median (MCP-1; CVC 50 mg): 65.0 pg/mL | MCP-1 Day 10, Range (MCP-1; CVC 50 mg): 21 to 266 pg/mL | MCP-1 Baseline, Mean (MCP-1; CVC 75 mg): 26.6 pg/mL | MCP-1 Baseline, Median (MCP-1; CVC 75 mg): 8.0 pg/mL | MCP-1 Baseline, Range (MCP-1; CVC 75 mg): 5 to 92 pg/mL | MCP-1 Change from Baseline to Day 10, Median (MCP-1; CVC 75 mg): +36.0 pg/mL | MCP-1 Day 10, Mean (MCP-1; CVC 75 mg): 59.1 pg/mL | MCP-1 Day 10, Median (MCP-1; CVC 75 mg): 43.5 pg/mL | MCP-1 Day 10, Range (MCP-1; CVC 75 mg): 20 to 128 pg/mL | MCP-1 Baseline, Mean (MCP-1; CVC 150 mg): 31.6 pg/mL | MCP-1 Baseline, Median (MCP-1; CVC 150 mg): 19.5 pg/mL | MCP-1 Baseline, Range (MCP-1; CVC 150 mg): 8 to 82 pg/mL | MCP-1 Change from Baseline to Day 10, Median (MCP-1; CVC 150 mg): +322.0 pg/mL | MCP-1 Day 10, Mean (MCP-1; CVC 150 mg): 372.0 pg/mL | MCP-1 Day 10, Median (MCP-1; CVC 150 mg): 368.0 pg/mL | MCP-1 Day 10, Range (MCP-1; CVC 150 mg): 79 to 605 pg/mL | Ly6C+ monocyte-derived macrophages in liver (% of liver leukocytes) [2]: 0.95%±0.14 | Tolerability [3]: generally well tolerated | HR Abnormally high, n subjects [4, 8]: 0 | HR Abnormally low, n subjects [4, 8]: 0 | PR Abnormally high, n subjects [4, 8]: 3 | QRS Abnormally high, n subjects [4, 8]: 1 | QRS Abnormally low, n subjects [4, 8]: 0 | QTcB interval Borderline (450-480 ms), n subjects [4, 8]: 6 | QTcB interval Increase by >30-60 ms, n subjects [4, 8]: 9 | QTcB interval Increase by >60 ms, n subjects [4, 8]: 1 | QTcB interval Pathologically prolonged, n subjects [4, 8]: 0 | QTcB interval Prolonged, n subjects [4, 8]: 0 | QTcF interval Borderline (450-480 ms), n subjects [4, 8]: 2 | QTcF interval Increase by >30-60 ms, n subjects [4, 8]: 7 | QTcF interval Increase by >60 ms, n subjects [4, 8]: 1 | QTcF interval Pathologically prolonged, n subjects [4, 8]: 0 | QTcF interval Prolonged, n subjects [4, 8]: 0 | HR Abnormally high, n subjects ([4]; CVC 100 mg (N = 58)): 0 | HR Abnormally low, n subjects ([4]; CVC 100 mg (N = 58)): 0 | PR Abnormally high, n subjects ([4]; CVC 100 mg (N = 58)): 2 | QRS Abnormally high, n subjects ([4]; CVC 100 mg (N = 58)): 1 | QRS Abnormally low, n subjects ([4]; CVC 100 mg (N = 58)): 0 | QTcB interval Borderline (450-480 ms), n subjects ([4]; CVC 100 mg (N = 58)): 4 | QTcB interval Increase by >30-60 ms, n subjects ([4]; CVC 100 mg (N = 58)): 6 | QTcB interval Increase by >60 ms, n subjects ([4]; CVC 100 mg (N = 58)): 1 | QTcB interval Pathologically prolonged, n subjects ([4]; CVC 100 mg (N = 58)): 0 | QTcB interval Prolonged, n subjects ([4]; CVC 100 mg (N = 58)): 0 | QTcF interval Borderline (450-480 ms), n subjects ([4]; CVC 100 mg (N = 58)): 1 | QTcF interval Increase by >30-60 ms, n subjects ([4]; CVC 100 mg (N = 58)): 4 | QTcF interval Increase by >60 ms, n subjects ([4]; CVC 100 mg (N = 58)): 1 | QTcF interval Pathologically prolonged, n subjects ([4]; CVC 100 mg (N = 58)): 0 | QTcF interval Prolonged, n subjects ([4]; CVC 100 mg (N = 58)): 0 | Subjects with QTc increase of >60 msec ([4]; CVC 100 mg arm): 1 subject | HR Abnormally high, n subjects ([4]; CVC 200 mg (N = 57)): 0 | HR Abnormally low, n subjects ([4]; CVC 200 mg (N = 57)): 0 | PR Abnormally high, n subjects ([4]; CVC 200 mg (N = 57)): 1 (2%) | QRS Abnormally high, n subjects ([4]; CVC 200 mg (N = 57)): 0 | QRS Abnormally low, n subjects ([4]; CVC 200 mg (N = 57)): 0 | QTcB interval Borderline (450-480 ms), n subjects ([4]; CVC 200 mg (N = 57)): 2 (4%) | QTcB interval Increase by >30-60 ms, n subjects ([4]; CVC 200 mg (N = 57)): 3 (6%) | QTcB interval Increase by >60 ms, n subjects ([4]; CVC 200 mg (N = 57)): 0 | QTcB interval Pathologically prolonged, n subjects ([4]; CVC 200 mg (N = 57)): 0 | QTcB interval Prolonged, n subjects ([4]; CVC 200 mg (N = 57)): 0 | QTcF interval Borderline (450-480 ms), n subjects ([4]; CVC 200 mg (N = 57)): 1 (2%) | QTcF interval Increase by >30-60 ms, n subjects ([4]; CVC 200 mg (N = 57)): 3 (6%) | QTcF interval Increase by >60 ms, n subjects ([4]; CVC 200 mg (N = 57)): 0 | QTcF interval Pathologically prolonged, n subjects ([4]; CVC 200 mg (N = 57)): 0 | QTcF interval Prolonged, n subjects ([4]; CVC 200 mg (N = 57)): 0 | Inhibition of ligand binding to CCR1 (CCR1): did not inhibit | Effect on body weight ([5]; CVC 7 mg/kg/day, Day 5): no effect on body weight | Outcome of the 100 mg/kg/day group ([5]; CVC 100 mg/kg/day, N=9, after UUO surgery): terminated early due to moribundity | Effect on UUO-induced increase in obstructed kidney hydroxyproline content ([5]; CVC 7 and 20 mg/kg/day): Neither dose of CVC tested affected UUO-induced increases | Effect on UUO-induced Collagen 1a1, Collagen 3a1, TGF-β1 and Fibronectin-1 mRNA expression ([5]; obstructed kidney cortex): did not reach statistical significance | Effect on UUO-induced MCP-1, α-SMA and CTGF-1 mRNA expression ([5]; obstructed kidney cortex): did not have significant effects | Tissue distribution [6]: high distribution in the liver, mesenteric lymph node, and intestine | Inflammation in clinical pathology parameters or any tissue incl. liver (microscopic evaluation) [7]: No indication of inflammation | Plasma MCP-1 levels over controls ([7]; 3- and 9-month studies): ~5 fold

O=C1Nc2ccc(Cl)cc2[C@@](C#CC2CC2)(C(F)(F)F)O1 [EFV, efavirenz, reference compound]
HR Abnormally high, n subjects [4, 8]: 0 | HR Abnormally low, n subjects [4, 8]: 0 | PR Abnormally high, n subjects [4, 8]: 1 | QRS Abnormally high, n subjects [4, 8]: 0 | QRS Abnormally low, n subjects [4, 8]: 0 | QTcB interval Borderline (450-480 ms), n subjects [4, 8]: 3 | QTcB interval Increase by >30-60 ms, n subjects [4, 8]: 4 | QTcB interval Increase by >60 ms, n subjects [4, 8]: 0 | QTcB interval Pathologically prolonged, n subjects [4, 8]: 0 | QTcB interval Prolonged, n subjects [4, 8]: 0 | QTcF interval Borderline (450-480 ms), n subjects [4, 8]: 0 | QTcF interval Increase by >30-60 ms, n subjects [4, 8]: 4 | QTcF interval Increase by >60 ms, n subjects [4, 8]: 0 | QTcF interval Pathologically prolonged, n subjects [4, 8]: 0 | QTcF interval Prolonged, n subjects [4, 8]: 0

Source: patent publication US20180110754A1, “CENICRIVIROC FOR THE TREATMENT OF FIBROSIS” (Tobira Therapeutics, Inc., priority 2015, published 2018)
